The values below are quoted from earlier work in US20070213390A1, “HMGCoA reductase inhibitor-angiotensin converting enzyme inhibitor compounds” (pSivida Inc., priority 2005, published 2007).

This data set concerns the target T1, HMGR (HMGCoA reductase) (Homo sapiens, UniProt P04035).
T1 sequence (P04035 426-888 limits assumed): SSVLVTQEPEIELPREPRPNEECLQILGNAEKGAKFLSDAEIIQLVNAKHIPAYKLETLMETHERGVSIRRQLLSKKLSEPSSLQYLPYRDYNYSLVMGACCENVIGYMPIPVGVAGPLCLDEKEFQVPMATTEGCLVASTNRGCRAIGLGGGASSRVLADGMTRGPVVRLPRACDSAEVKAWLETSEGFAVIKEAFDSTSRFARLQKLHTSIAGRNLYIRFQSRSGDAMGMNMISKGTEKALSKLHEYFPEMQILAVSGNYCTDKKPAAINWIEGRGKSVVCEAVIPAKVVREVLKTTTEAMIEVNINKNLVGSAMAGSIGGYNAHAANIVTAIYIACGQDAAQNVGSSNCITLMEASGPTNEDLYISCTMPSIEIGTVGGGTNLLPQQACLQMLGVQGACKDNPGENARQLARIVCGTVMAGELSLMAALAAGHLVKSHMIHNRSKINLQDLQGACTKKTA
Conditions: substrate of HMGR; read-out: Michaelis constant, Km, for HMG-CoA.

For the compound `CC(O)(CC(=O)O)CC(=O)SCCNC(=O)CCNC(=O)[C@H](O)C(C)(C)COP(=O)(O)OP(=O)(O)OC[C@H]1O[C@@H](n2cnc3c(N)ncnc32)[C@H](O)[C@@H]1OP(=O)(O)O` (stereo partly shown) [HMG-CoA, 3-hydroxy-3-methylglutaryl CoA], the Michaelis constant (Km) was 4 µM.

Broadly, the Km is the substrate concentration at which the rate is half of its maximum.
